Source: ChEMBL document CHEMBL1201862, “PubChem BioAssay data set” (2004)
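Growth conditions: 96-well plates. Treatment: test compound, 48 hours, 5 concentrations. Analysis: linear interpolation between bracketing concentrations; unreached endpoints set to highest concentration. Abbreviation: GI50, concentration required for 50% inhibition of growth.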 Active and inactive are the calls of the source. Cut-off read from the data, not from the text of the source: active = GI50 up to about 1.1 µM and inactive = higher.

Tests used:
Assay in all cases: DTP human tumour cell line panel, 48 h
[1] = test system: A549
[2] = test system: COLO 205
[3] = test system: HCC 2998
[4] = test system: HOP-62
[5] = test system: K562
[6] = test system: KM12
[7] = test system: LOX IMVI
[8] = test system: MCF7
[9] = test system: NCI-H226
[10] = test system: NCI/ADR-RES
[11] = test system: OVCAR-3
[12] = test system: PC-3
[13] = test system: RPMI-8226
[14] = test system: SF-268
[15] = test system: SK-OV-3
[16] = test system: SN12C
[17] = test system: SW-620
[18] = test system: TK-10
[19] = test system: U-251
[20] = test system: UO-31

Measured: GI50

COc1ccc(-c2cc(=O)c3c(O)cc(C)cc3o2)cc1OC
inactive: [1] > 100 µM | [2] > 100 µM | [3] 79.6 µM | [4] > 100 µM | [5] > 100 µM | [6] > 100 µM | [7] > 100 µM | [8] > 100 µM | [9] > 100 µM | [10] > 100 µM | [11] > 100 µM | [12] > 100 µM | [13] > 100 µM | [14] > 100 µM | [15] > 100 µM | [16] > 100 µM | [17] > 100 µM | [18] > 100 µM | [19] > 100 µM | [20] > 100 µM

O=S(=O)([C-]([I+]c1ccccc1)S(=O)(=O)C(F)(F)C(F)(F)C(F)(F)C(F)(F)F)C(F)(F)C(F)(F)C(F)(F)C(F)(F)F
inactive: [1] 18.7 µM | [2] 6.64 µM | [3] 20 µM | [4] 16.8 µM | [5] 4.11 µM | [6] 21.5 µM | [7] 14.4 µM | [8] 6.05 µM | [9] 3.97 µM | [10] 24.3 µM | [11] 15.9 µM | [12] 17.2 µM | [13] 3.54 µM | [14] 18.5 µM | [15] 16.7 µM | [17] 5.69 µM | [18] 16.3 µM | [19] 14.4 µM | [20] 13.2 µM

COc1cc(C(c2cc3c(cc2O)OCO3)N2CCCC2)cc(OC)c1OC (centres undefined)
inactive: [1] 20.4 µM | [2] 11.7 µM | [3] 28.5 µM | [4] 30.5 µM | [5] 4.37 µM | [6] 18.2 µM | [7] 14.6 µM | [8] 26.9 µM | [9] 17.4 µM | [10] 17.3 µM | [11] 17.7 µM | [12] 17.3 µM | [13] 11.6 µM | [15] 30.3 µM | [16] 12.2 µM | [17] 3.4 µM | [18] 20.2 µM | [19] 16.9 µM | [20] 14.8 µM

COCC12CCC(OC)C34C5CC6(O)C(OC)CC(OC(C)=O)(C5C6OC(=O)c5ccccc5)C(C(OC)C13)C4N(C)C2 (centres undefined)
inactive: [1] > 100 µM | [2] > 100 µM | [3] > 100 µM | [4] > 100 µM | [6] > 100 µM | [7] > 100 µM | [8] > 100 µM | [9] > 100 µM | [10] > 100 µM | [11] > 100 µM | [12] > 100 µM | [13] > 100 µM | [14] > 100 µM | [15] 43 µM | [16] > 100 µM | [17] > 100 µM | [18] > 100 µM | [19] > 100 µM | [20] > 100 µM

Cc1cccc(/N=N/c2c(C)nn(C(=O)CC(=O)Nc3ccccc3)c2C)c1
inactive: [1] > 100 µM | [2] > 100 µM | [3] > 100 µM | [4] > 100 µM | [6] > 100 µM | [7] > 100 µM | [8] > 100 µM | [9] > 100 µM | [10] > 100 µM | [11] > 100 µM | [12] > 100 µM | [13] > 100 µM | [14] > 100 µM | [15] > 100 µM | [16] > 100 µM | [17] > 100 µM | [18] > 100 µM | [19] > 100 µM | [20] > 100 µM

O=[N+]([O-])c1ccc2c(c1)S(=O)(=O)N1Cc3ccccc3CCN21
inactive: [1] > 100 µM | [2] > 100 µM | [3] > 100 µM | [4] > 100 µM | [5] > 100 µM | [6] > 100 µM | [7] > 100 µM | [8] > 100 µM | [9] > 100 µM | [10] > 100 µM | [11] 48.8 µM | [12] > 100 µM | [13] > 100 µM | [14] 40.7 µM | [16] > 100 µM | [17] > 100 µM | [18] > 100 µM | [19] 45.1 µM | [20] > 100 µM

C=CCn1c(S)nnc1C12CC3CC(CC(C3)C1)C2
inactive: [2] > 100 µM | [3] 76.4 µM | [4] > 100 µM | [5] 25.4 µM | [6] 75.5 µM | [7] 86.5 µM | [8] 42.9 µM | [9] > 100 µM | [10] 55.1 µM | [11] 59.4 µM | [12] 32.7 µM | [13] 36.7 µM | [14] > 100 µM | [15] > 100 µM | [16] > 100 µM | [17] > 100 µM | [18] 50.7 µM | [19] 86.9 µM | [20] 33 µM

CCN1CCC(O)(c2ccc(Oc3ccc(Cl)cc3)cc2)C(C(=O)c2ccc(Oc3ccc(Cl)cc3)cc2)C1 (centres undefined)
inactive: [1] 6.97 µM | [2] 13.2 µM | [3] 12.5 µM | [4] 9.48 µM | [5] 5.28 µM | [6] 2.56 µM | [7] 3.78 µM | [8] 5.41 µM | [9] 15 µM | [10] 17.3 µM | [12] 9.57 µM | [13] 3.37 µM | [14] 17.8 µM | [15] 23.3 µM | [16] 13.7 µM | [17] 12.8 µM | [18] 10.6 µM | [19] > 10 µM | [20] 13.6 µM

O=[N+]([O-])/C(C(Cl)=C(Cl)Cl)=C(\Nc1cccc2cccnc12)SCc1ccccc1
inactive: [1] 31.3 µM | [2] 18.8 µM | [3] 18.2 µM | [4] 15.8 µM | [5] 13.4 µM | [6] 17.2 µM | [8] 15.3 µM | [9] 20.3 µM | [10] 21.2 µM | [11] 15.5 µM | [12] 14.8 µM | [13] 22.3 µM | [14] 17.3 µM | [15] 15.8 µM | [16] 25.3 µM | [17] 18.4 µM | [19] 16.1 µM | [20] 18.3 µM

CCOC(=O)C(Cc1ccccc1)(Cc1ccc(O)cn1)NC(=O)c1ccccc1 (centres undefined)
inactive: [1] 27.2 µM | [2] 24.4 µM | [3] 25.1 µM | [4] 32.2 µM | [5] 29.7 µM | [6] 17.5 µM | [7] 19.8 µM | [8] 22.3 µM | [9] 29.2 µM | [10] 26.4 µM | [11] 19.2 µM | [12] 18.5 µM | [13] 25.9 µM | [14] 17.7 µM | [15] 30.6 µM | [17] 29.6 µM | [18] 32.1 µM | [19] 21.7 µM | [20] 29.6 µM

O=c1[nH]nc(-c2ccc3ccccc3c2)[nH]1
inactive: [1] > 100 µM | [2] > 100 µM | [3] > 100 µM | [4] > 100 µM | [5] > 100 µM | [6] 36.2 µM | [7] > 100 µM | [8] > 100 µM | [9] > 100 µM | [10] > 100 µM | [11] > 100 µM | [12] > 100 µM | [13] > 100 µM | [14] > 100 µM | [16] > 100 µM | [17] > 100 µM | [18] > 100 µM | [19] > 100 µM | [20] 43.3 µM

O=c1c2ccccc2c2ccccc2c(=O)n1-c1cc2c3ccccc3ccc2c2ccccc12
inactive: [1] > 100 µM | [2] > 100 µM | [3] 22.3 µM | [4] > 100 µM | [6] > 100 µM | [7] > 100 µM | [8] 91.8 µM | [9] > 100 µM | [10] > 100 µM | [11] > 100 µM | [12] > 100 µM | [13] 60.3 µM | [14] > 100 µM | [15] > 100 µM | [16] 84.5 µM | [17] > 100 µM | [18] > 100 µM | [19] > 100 µM | [20] > 100 µM

CCCCn1c(C)c(C(=O)OCC)s/c1=N/Nc1nc2ccccc2nc1-c1ccccc1
inactive: [1] 50.4 µM | [2] > 100 µM | [3] > 100 µM | [4] 30.8 µM | [5] > 100 µM | [7] > 100 µM | [8] 82.4 µM | [9] 78.5 µM | [10] > 100 µM | [11] 72.1 µM | [12] 30.9 µM | [13] 86.3 µM | [15] 53.3 µM | [16] > 100 µM | [17] > 100 µM | [18] > 100 µM | [19] 43.6 µM

Nc1ccccc1C(=O)CCc1c[nH]c2ccccc12
inactive: [1] > 100 µM | [3] > 100 µM | [4] 32.2 µM | [5] > 100 µM | [6] > 100 µM | [7] 47.5 µM | [8] > 100 µM | [9] > 100 µM | [10] > 100 µM | [11] > 100 µM | [12] > 100 µM | [13] > 100 µM | [14] 43.4 µM | [15] 27 µM | [16] > 100 µM | [17] > 100 µM | [18] > 100 µM | [19] 27.4 µM | [20] 5.4 µM
